Reference: article PMC6801739, “Antitumor Activity of a Novel Tyrosine Kinase Inhibitor AIU2001 Due to Abrogation of the DNA Damage Repair in Non-Small Cell Lung Cancer Cells” (International Journal of Molecular Sciences, 2019)

Assays:
[1] = target: T1, FLT1 (Homo sapiens, UniProt P17948); assay: Kinase profiling at 10 μM (Eurofins); format: biochemical; conditions: read-out: Inhibitory activity
T1 construct: purchased Eurofins Pharma Discovery (KinaseProfiler); IC50 values by Reaction Biology Corp

[2] = tested on: H1299 cells; assay: Cell cycle analysis (PI, flow cytometry); format: cell-based, human; conditions: 5 μM
Protocol: (§1) Samples were collected at the indicated time points and fixed in 70% cold ethanol overnight. For cell cycle analysis, the fixed cells were treated with RNase for 20 min before addition of 50 μg/mL PI and analyzed using FACS Calibur™ (BD Biosciences, San Jose, CA, USA).

[3] = tested on: A549 cells; assay: Cell cycle analysis (PI, flow cytometry); format: cell-based, human; conditions: 5 μM
Protocol: as §1

[4] = tested on: H1299 cells; assay: Immunoblot of cell cycle checkpoint proteins; format: cell-based, human; conditions: 5 μM, 6 h or 24 h
Protocol: (§2) Cell lysates were prepared by extracting proteins with TNN buffer (40 mM Tris-Cl pH 8.0, 0.2% NP-40, 120 mM NaCl) or radioimmunoprecipitation assay (RIPA) lysis buffer (Millipore, Billerica MA, USA) supplemented with a protease inhibitor cocktail (Thermo Fisher Scientific, Rockford, IL, USA). Equal amounts of proteins were separated using SDS-PAGE on 8–13% gels, and transferred to nitrocellulose membranes (Bio-Rad, Hercules, CA, USA). The membranes were blocked with 5% skim milk in Tris-buffered saline-Tween 20 (TBST) (150 mM NaCl, 10 mM Tris, 0.2% Tween20), followed by overnight incubation with primary antibodies at 4 °C. The blots were developed using peroxidase-conjugated secondary antibody and the immunoreactive proteins were visualized using enhanced chemiluminescence (ECL) reagents, according to the manufacturer’s recommendations (Amersham, GE Healthcare, Buckingamshire, UK). The protein bands were visualized using a digital imaging system (ImageQuant LAS 4000 mini; GE Healthcare, UK). The protein levels were analyzed using Image J software (National Institutes of Health, Bethesda, MD, USA). Experiments were repeated at least thrice.

[5] = tested on: A549 cells; assay: Immunoblot of cell cycle checkpoint proteins; format: cell-based, human; conditions: 5 μM
Protocol: as §2

[6] = target: T2, EGFR (Homo sapiens, UniProt P00533); assay: Kinase profiling at 10 μM (Eurofins); format: biochemical; conditions: read-out: Inhibitory activity
T2 construct: purchased Eurofins Pharma Discovery (KinaseProfiler); IC50 values by Reaction Biology Corp

[7] = target: T3, ROCK-I (Homo sapiens, UniProt Q13464); assay: Kinase profiling at 10 μM (Eurofins); format: biochemical; conditions: read-out: Inhibitory activity
T3 construct: purchased Eurofins Pharma Discovery (KinaseProfiler); IC50 values by Reaction Biology Corp

[8] = target: T4, CHK2 (Homo sapiens, UniProt O96017); assay: Kinase profiling at 10 μM (Eurofins); format: biochemical; conditions: read-out: Inhibitory activity
T4 construct: purchased Eurofins Pharma Discovery (KinaseProfiler); IC50 values by Reaction Biology Corp

[9] = target: T5, B-RAF (Homo sapiens, UniProt P15056); assay: Kinase profiling at 10 μM (Eurofins); format: biochemical; conditions: read-out: Inhibitory activity
T5 construct: purchased Eurofins Pharma Discovery (KinaseProfiler); IC50 values by Reaction Biology Corp

[10] = target: FLT3(D835Y) (Homo sapiens, UniProt P36888, D835Y); assay: In vitro kinase assay, IC50 (Reaction Biology Corp.); format: biochemical; design: purchased Reaction Biology Corp. (Malvern, PA, USA)
[11] = target: T6, CHK1 (Homo sapiens, UniProt O14757); assay: Kinase profiling at 10 μM (Eurofins); format: biochemical; conditions: read-out: Inhibitory activity
T6 construct: purchased Eurofins Pharma Discovery (KinaseProfiler); IC50 values by Reaction Biology Corp

[12] = target: T7, TGFBR1 (Homo sapiens, UniProt P36897); assay: Kinase profiling at 10 μM (Eurofins); format: biochemical; conditions: read-out: Inhibitory activity
T7 construct: purchased Eurofins Pharma Discovery (KinaseProfiler); IC50 values by Reaction Biology Corp

[13] = target: T8, ERBB4 (Homo sapiens, UniProt Q15303); assay: Kinase profiling at 10 μM (Eurofins); format: biochemical; conditions: read-out: Inhibitory activity
T8 construct: purchased Eurofins Pharma Discovery (KinaseProfiler); IC50 values by Reaction Biology Corp

[14] = tested on: H1299 cells; assay: γ-H2AX immunofluorescence foci assay; format: cell-based, human; conditions: 5 μM
Protocol: (§3) For γ-H2AX and 4′,6-diamidino-2-phenylindole (DAPI) staining, cells were fixed in 4% paraformaldehyde for 15 min at room temperature and permeabilized with 0.1% Triton X-100 in PBS for 20 min. The cells were then incubated with 1:200 dilution of anti-phosho-H2AX (Ser139) antibody overnight at 4 °C. AlexaFluor 594-conjugated anti-mouse IgG antibody (Abcam, Cambridge, UK) was used at 1:400 dilution for 1 h at room temperature. The slides were mounted in mounting medium (DAKO, Santa Clara, CA, USA) with DAPI (ThermoFisher Scientific) before imaging. Images were acquired using an LSM880 laser scanning microscope (ZEISS, Jena, Germany). Fluorescent images were captured using the appropriate filters. Images were analyzed using the Image J and ZEN software.

[15] = tested on: A549 cells; assay: γ-H2AX immunofluorescence foci assay; format: cell-based, human; conditions: 5 μM
Protocol: as §3

[16] = target: T9, PIM-1 (Homo sapiens, UniProt P11309); assay: Kinase profiling at 10 μM (Eurofins); format: biochemical; conditions: read-out: Inhibitory activity
T9 construct: purchased Eurofins Pharma Discovery (KinaseProfiler); IC50 values by Reaction Biology Corp

[17] = target: T10, ERBB2 (Homo sapiens, UniProt P04626); assay: Kinase profiling at 10 μM (Eurofins); format: biochemical; conditions: read-out: Inhibitory activity
T10 construct: purchased Eurofins Pharma Discovery (KinaseProfiler); IC50 values by Reaction Biology Corp

[18] = tested on: H1299 cells; assay: Immunoblot of phospho-STAT5; format: cell-based, human
Protocol: as §2

[19] = target: T11, FAK (Homo sapiens, UniProt Q05397); assay: Kinase profiling at 10 μM (Eurofins); format: biochemical; conditions: read-out: Inhibitory activity
T11 construct: purchased Eurofins Pharma Discovery (KinaseProfiler); IC50 values by Reaction Biology Corp

[20] = tested on: MV4-11 cells; assay: CCK-8 cell viability assay; format: cell-based, human; conditions: CCK-8, 5 days
Protocol: (§4) Supplementary Figure 1. AIU2001 inhibited the proliferation of various cancer cells. (A and B) Human AML cells (Molm-13 and MV4-11; A) and human colorectal cancer (CRC) cells (HCT116/p53+/+ and HCT116/p53-/-; B) were treated with AIU2001 at the indicated concentrations for 5 days and viable cells were evaluated using the CCK-8 assay for AML cells and the MTT assay for CRC cells. *p < 0.05, **p < 0.01, ***p < 0.001 versus respective vehicle controls.
(§5) (also on this page, place not known: ca ncer fo r 02468 Cell viability (%) 0 1 Cell viability (%) *** *** ***) […]
(§6) Cell viability. Cytotoxicity assay of AML cells was performed using cell counting kit-8 (CCD-8; Dojindo, Japan) according to the manufacturer’s procedure. Briefly, MV4-11 or Molm-13 cells were plated in 96-well plates at a density of […] or 1 × 10^3 cells/well in triplicate, treated with AIU2001 or DMSO, and then incubated for 5 days. After adding the CCK-8 solution (10 μl) to each well and incubating the plates for 3 h, absorbance at 450 nm was measured using a microplate reader

[21] = tested on: Molm-13 cells; assay: CCK-8 cell viability assay; format: cell-based, human; conditions: CCK-8, 5 days
Protocol: as §4, §5, §6

T9 sequence (P11309 whole entry): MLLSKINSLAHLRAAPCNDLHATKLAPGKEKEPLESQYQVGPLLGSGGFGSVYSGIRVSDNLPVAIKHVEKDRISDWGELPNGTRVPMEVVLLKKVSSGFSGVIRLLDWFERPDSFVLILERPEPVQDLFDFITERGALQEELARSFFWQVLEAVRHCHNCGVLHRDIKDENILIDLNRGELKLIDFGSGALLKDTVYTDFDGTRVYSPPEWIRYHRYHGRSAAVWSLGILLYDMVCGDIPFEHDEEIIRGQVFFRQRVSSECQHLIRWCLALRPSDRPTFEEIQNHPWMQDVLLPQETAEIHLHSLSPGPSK
T10 sequence (P04626 23-1255): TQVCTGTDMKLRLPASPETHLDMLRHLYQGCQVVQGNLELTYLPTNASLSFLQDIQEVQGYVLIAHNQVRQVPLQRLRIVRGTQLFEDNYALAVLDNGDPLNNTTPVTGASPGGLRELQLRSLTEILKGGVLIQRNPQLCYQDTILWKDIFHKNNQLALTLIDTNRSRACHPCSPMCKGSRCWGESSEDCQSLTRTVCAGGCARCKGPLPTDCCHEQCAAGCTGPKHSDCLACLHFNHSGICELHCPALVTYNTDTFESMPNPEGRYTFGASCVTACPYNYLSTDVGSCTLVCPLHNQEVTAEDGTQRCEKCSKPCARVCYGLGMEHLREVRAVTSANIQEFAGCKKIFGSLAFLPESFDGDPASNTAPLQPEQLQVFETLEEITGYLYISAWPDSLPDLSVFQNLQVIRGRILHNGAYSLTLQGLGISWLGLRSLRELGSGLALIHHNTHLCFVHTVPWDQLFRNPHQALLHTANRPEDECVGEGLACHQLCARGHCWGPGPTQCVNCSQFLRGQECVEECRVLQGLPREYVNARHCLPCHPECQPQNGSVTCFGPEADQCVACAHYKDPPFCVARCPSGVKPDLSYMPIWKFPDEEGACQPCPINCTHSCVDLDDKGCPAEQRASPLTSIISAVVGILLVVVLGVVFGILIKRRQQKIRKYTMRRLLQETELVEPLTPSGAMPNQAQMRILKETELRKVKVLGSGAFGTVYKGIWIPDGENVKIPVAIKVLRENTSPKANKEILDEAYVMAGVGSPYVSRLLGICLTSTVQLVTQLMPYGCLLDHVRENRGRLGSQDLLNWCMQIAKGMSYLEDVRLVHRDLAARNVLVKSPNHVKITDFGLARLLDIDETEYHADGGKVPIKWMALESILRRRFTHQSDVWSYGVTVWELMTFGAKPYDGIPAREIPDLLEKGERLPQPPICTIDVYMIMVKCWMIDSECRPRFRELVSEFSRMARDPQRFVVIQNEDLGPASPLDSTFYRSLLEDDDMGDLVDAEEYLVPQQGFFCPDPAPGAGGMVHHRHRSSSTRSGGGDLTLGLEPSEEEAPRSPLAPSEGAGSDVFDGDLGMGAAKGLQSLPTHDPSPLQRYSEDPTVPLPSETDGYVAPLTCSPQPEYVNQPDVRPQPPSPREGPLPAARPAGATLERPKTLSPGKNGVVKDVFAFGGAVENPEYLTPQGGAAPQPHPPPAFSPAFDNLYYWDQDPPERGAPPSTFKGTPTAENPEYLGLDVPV
T8 sequence (Q15303 26-1308): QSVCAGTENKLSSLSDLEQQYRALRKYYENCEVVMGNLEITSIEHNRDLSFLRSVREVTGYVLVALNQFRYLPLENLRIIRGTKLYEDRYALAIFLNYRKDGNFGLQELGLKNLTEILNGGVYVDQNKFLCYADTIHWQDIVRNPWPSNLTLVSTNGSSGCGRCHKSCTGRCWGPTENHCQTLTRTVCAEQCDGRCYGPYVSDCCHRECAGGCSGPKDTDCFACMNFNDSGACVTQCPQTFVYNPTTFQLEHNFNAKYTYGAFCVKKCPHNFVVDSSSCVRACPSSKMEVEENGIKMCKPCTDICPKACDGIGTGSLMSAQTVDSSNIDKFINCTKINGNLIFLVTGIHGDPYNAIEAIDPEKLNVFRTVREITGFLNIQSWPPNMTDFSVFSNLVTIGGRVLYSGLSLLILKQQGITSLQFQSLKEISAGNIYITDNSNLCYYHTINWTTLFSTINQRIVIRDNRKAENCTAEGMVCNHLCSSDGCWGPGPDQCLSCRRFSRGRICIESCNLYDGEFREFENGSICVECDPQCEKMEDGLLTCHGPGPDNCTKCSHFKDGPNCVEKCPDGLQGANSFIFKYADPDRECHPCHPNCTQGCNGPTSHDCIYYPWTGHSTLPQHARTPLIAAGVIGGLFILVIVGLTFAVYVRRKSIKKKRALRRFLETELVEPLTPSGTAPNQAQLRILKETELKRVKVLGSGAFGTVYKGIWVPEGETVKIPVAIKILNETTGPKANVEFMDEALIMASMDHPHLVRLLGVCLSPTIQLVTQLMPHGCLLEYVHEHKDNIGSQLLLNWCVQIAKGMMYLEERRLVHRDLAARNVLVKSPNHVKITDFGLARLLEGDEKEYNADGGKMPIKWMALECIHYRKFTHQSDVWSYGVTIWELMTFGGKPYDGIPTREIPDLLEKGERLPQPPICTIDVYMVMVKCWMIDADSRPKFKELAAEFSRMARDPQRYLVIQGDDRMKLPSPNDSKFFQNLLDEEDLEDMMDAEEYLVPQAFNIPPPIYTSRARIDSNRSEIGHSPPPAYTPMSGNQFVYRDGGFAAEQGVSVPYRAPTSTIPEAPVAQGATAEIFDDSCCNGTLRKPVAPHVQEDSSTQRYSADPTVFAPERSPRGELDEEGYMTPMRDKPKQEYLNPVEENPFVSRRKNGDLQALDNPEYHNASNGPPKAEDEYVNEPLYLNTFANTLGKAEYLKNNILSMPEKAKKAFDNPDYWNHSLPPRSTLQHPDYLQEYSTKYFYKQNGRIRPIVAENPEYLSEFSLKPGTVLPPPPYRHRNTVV
T1 sequence (P17948 27-1338): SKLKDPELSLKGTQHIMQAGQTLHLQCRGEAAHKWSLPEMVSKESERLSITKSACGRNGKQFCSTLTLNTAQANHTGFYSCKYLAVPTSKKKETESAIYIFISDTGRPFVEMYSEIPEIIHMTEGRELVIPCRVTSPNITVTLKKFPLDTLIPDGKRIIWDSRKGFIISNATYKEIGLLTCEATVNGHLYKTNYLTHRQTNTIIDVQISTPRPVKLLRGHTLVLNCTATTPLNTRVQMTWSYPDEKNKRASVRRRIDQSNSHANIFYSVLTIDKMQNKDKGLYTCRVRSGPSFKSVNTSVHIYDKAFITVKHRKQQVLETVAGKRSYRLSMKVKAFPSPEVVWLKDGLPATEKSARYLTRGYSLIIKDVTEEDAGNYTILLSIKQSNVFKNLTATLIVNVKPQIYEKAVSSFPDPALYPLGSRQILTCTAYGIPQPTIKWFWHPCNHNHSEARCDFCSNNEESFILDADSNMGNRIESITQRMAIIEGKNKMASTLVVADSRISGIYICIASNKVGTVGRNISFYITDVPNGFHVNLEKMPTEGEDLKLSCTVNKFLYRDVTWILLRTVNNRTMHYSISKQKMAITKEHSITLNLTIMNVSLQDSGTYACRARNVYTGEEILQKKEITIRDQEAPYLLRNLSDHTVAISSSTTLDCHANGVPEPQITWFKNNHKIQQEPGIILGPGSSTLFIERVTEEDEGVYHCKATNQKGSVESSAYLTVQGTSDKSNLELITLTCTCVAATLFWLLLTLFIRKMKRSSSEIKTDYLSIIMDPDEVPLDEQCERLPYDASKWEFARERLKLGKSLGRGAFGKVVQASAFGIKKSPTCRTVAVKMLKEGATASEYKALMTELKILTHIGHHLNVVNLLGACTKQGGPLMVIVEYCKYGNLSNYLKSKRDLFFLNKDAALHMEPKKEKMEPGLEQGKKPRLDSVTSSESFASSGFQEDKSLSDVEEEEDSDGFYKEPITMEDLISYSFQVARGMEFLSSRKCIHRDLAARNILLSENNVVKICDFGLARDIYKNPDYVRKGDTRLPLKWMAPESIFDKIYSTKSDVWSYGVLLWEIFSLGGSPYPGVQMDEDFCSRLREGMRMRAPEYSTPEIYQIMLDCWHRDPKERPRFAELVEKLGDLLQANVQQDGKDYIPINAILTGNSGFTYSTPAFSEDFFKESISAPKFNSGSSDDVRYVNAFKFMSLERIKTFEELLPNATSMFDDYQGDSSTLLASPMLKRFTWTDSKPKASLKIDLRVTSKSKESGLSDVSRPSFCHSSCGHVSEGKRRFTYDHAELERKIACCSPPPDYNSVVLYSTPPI
T7 sequence (P36897 34-503): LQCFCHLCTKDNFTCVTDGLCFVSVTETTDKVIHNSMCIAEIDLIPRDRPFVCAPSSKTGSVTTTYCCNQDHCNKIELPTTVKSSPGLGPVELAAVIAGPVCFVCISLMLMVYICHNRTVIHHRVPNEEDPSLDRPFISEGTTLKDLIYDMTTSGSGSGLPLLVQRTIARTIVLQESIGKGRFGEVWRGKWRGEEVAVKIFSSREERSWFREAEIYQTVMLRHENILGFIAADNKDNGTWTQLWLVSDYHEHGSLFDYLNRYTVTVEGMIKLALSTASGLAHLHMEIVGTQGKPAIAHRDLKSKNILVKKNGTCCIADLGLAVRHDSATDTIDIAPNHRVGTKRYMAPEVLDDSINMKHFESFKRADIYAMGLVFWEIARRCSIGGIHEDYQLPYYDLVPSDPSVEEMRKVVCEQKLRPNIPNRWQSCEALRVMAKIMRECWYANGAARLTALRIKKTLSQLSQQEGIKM
T6 sequence (O14757 whole entry): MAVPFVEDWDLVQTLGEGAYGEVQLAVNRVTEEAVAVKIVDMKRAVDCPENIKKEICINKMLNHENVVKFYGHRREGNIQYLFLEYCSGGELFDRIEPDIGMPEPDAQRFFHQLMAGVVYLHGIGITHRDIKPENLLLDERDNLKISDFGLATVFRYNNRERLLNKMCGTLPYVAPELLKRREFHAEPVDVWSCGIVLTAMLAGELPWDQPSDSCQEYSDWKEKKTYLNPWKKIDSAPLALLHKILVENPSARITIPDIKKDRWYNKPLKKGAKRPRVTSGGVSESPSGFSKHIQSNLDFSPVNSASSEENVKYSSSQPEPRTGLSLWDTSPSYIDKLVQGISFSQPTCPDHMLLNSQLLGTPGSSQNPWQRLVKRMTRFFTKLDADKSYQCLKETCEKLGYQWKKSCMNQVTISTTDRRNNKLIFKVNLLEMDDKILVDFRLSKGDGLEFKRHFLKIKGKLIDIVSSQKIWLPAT

For Brc1ccc(-c2cnc(Nc3cccc4ccccc34)o2)cc1 [AIU2001, 5-(4-bromophenyl)-N-(naphthalen-1-yl) oxazol-2-amine], the inhibition at 10 µM [1] was 44%, the Cell cycle effect ([2]; 3 h, 6 h or 24 h) was “G2/M phase arrest” and the “Cells in the sub-G1 phase” value ([2]; 24 h) was 23.1%. For the same compound, the Cell cycle effect ([3]; 3 h, 6 h or 24 h) was “G2/M phase arrest”, the “Cells in the sub-G1 phase” value ([3]; 24 h) was 3.3% and the CDC25C level [4] was “decrease”. The “Cyclin B1 level” value [4] was “significant increase”, the “Phosphorylated histone H3 level” value [4] was “significant increase” and the “Phosphorylation of CHK1 at Ser345” value [4] was “increased the phosphorylation”. For the same compound, the “Phosphorylation of CHK2 at Thr68” value [4] was “increased the phosphorylation”, the “Expression of p21” value ([5]; A549 (p53 wild-type)) was “increased in A549 cells” and the “Expression of phosphorylated p53” value ([5]; A549 (p53 wild-type)) was “increased in A549 cells”. The CDC25C level ([5]; A549, 6 h or 24 h) was “decrease”, the “Cyclin B1 level” value ([5]; A549, 6 h or 24 h) was “significant increase” and the “Phosphorylated histone H3 level” value ([5]; A549, 6 h or 24 h) was “significant increase”. The “Phosphorylation of CHK1 at Ser345” value ([5]; A549, 6 h or 24 h) was “increased the phosphorylation”, the “Phosphorylation of CHK2 at Thr68” value ([5]; A549, 6 h or 24 h) was “increased the phosphorylation” and the inhibition at 10 µM [6] was 10%. The inhibition at 10 µM [7] was 0%, the inhibition at 10 µM [8] was 14% and the inhibition at 10 µM [9] was 0%. The IC50 [10] was 108 nM, the inhibition at 10 µM [11] was 0% and the inhibition at 10 µM [12] was 12%. For the same compound, the inhibition at 10 µM [13] was 1%, the γ-H2AX foci [14] was “high levels of γ-H2AX foci” and the γ-H2AX foci [15] was “high levels of γ-H2AX foci”. For the same compound, the inhibition at 10 µM [16] was 37%, the inhibition at 10 µM [17] was 0% and the “Phosphorylated STAT5” value [18] was “inhibited phosphorylated STAT5”. For the same compound, the inhibition at 10 µM [19] was 16%, the “Growth inhibition” value [20] was “inhibited the growth” and the “Growth inhibition” value [21] was “inhibited the growth”.
